These results are taken from PMC7098970, “Neurosteroids as Selective Inhibitors of Glycine Receptor Activity: Structure-Activity Relationship Study on Endogenous Androstanes and Androstenes” (Frontiers in Molecular Neuroscience, 2020).

SMILES strings stand for the structures. Entries after “also recorded” stand apart in the source; their conditions may differ. Counter-ions that a name gives are not always drawn. Like-named read-outs stand apart in the source and are kept apart here.

One assay has as its system GABAAR. Also on record: method as in Park-Chung et al., 1999. To be noted: ref Park-Chung et al., 1999; cited from earlier work.
The subject of another assay is glycine receptor (GlyR). The experiment in a line: Glycine-induced chloride current (IGly), whole-cell patch-clamp in isolated pyramidal neurons of the rat hippocampus. To be noted: 100 μM glycine; for τdes/τdes control of IGly: 0.1 μM of steroid; for τdes/τdes control of IGly / Ipeak/Ipeak control of IGly: mean ± SEM, normalized; for τdes IGly (effect on time constant of desensitization): 10 μM compound; for Ipeak/Ipeak control of IGly: 10 μM of steroid; for Ipeak max (maximum inhibition attainable) of IGly / τdes max (maximum inhibition attainable) of IGly: Hill fit; for Ipeak max (maximum inhibition attainable) of IGly / Ipeak Hill coefficient of IGly: peak amplitude; for τdes max (maximum inhibition attainable) of IGly / τdes Hill coefficient of IGly: time constant of desensitization. It counts as cell-based. As for the experimental part: (§1) All experiments were conducted per the requirements of the Ministry of Public Health of the Russian Federation and were consistent with the EU directive for Use of Experimental Animals of the European Community. […] The cells were isolated from transverse hippocampal slices as described in detail elsewhere ([Vorobjev, 1991]). Briefly, the slices (200–500 μm) of Wistar rats (11–14 days of age) hippocampus or cerebellum were incubated at room temperature for at least 2 h in a solution containing the following components (in mM): 124 NaCl, 3 KCl, 2 CaCl2, 2 MgSO4, 25 NaHCO3, 1.3 NaH2PO4, 10 D-glucose, pH 7.4. The saline was continuously stirred and bubbled with carbogen (95% 0_2 + 5% CO2). Single pyramidal neurons from the hippocampal CA3 area or Purkinje cells from sagittal slices of the cerebellum were isolated by a vibrating fused glass pipette with a spherical tip.
(§2) Isolated neurons were patch clamped and then lifted into the outflow of the control bath solution. […] The substances were applied through glass capillary, 0.1 mm in diameter, which could be rapidly displaced laterally ([Vorobjev et al., 1996]). A fast perfusion technique allows a complete exchange of external solution surrounding a neuron within 20 ms. […] Transmembrane currents were recorded using a conventional patch-clamp technique in the whole-cell configuration. […] The solution in the recording pipette contained the following (in mM): 40 CsF, 100 CsCl, 0.5 CaCl2, 5 EGTA, 3 MgCl2, 4 NaATP, 5 HEPES, pH 7.3. The composition of the extracellular solution was as follows (in mM): 140 NaCl, 3 KCl, 3 CaCl2, 3 MgCl2, 10 D-glucose, 10 HEPES hemisodium, and pH 7.4. Recording of the currents was performed using EPC7 patch-clamp amplifier (HEKA Electronik, Germany). The holding potential was maintained at −70 mV. Transmembrane currents were filtered at 3 kHz, stored and analyzed with IBM-PC computer, using homemade software.
(§3) Statistical analysis was performed with the help of Prism Graphpad software. All comparisons were made with ANOVA-test using Dunnett’s multiple comparison test and Student’s unpaired t-test at a significance level of p = 0.05. N = 5–8 cells from 3 to 4 animals for every concentration. […] The meanings of asterisks (probability levels) in figures is the following: ^∗P < 0.05, ^∗∗P < 0.01. The IC50 values for steroids inhibition of the IGly and IGABA were determined using the equation: Y = 1 – [max/(1 + (IC50/C)^n)], where max is the maximum inhibition attainable, C is the concentration of steroid, IC50 is the half-maximal inhibitory concentration and n is the slope factor (Hill coefficient).
(§4) First, the ability of steroids to affect the holding current at voltage-clamp regime was tested. […] The experiments with IGly were conducted on rat hippocampal neurons, and experiments with IGABA were conducted on rat cerebellar Purkinje cells.
(In general: In patch-clamp work, channel activity is measured electrically.)

The next assay concerns the target T1, GABAA receptors (Rattus norvegicus, UniProt P18508+P62813+P63138).
T1 construct: Single pyramidal neurons from the hippocampal CA3 area or Purkinje cells from sagittal slices of the cerebellum were isolated; endogenous in cells; host or cells: acutely isolated Purkinje cells from cerebellar slices of Wistar rats, 11-14 days old
Type of assay: cell-based. As for the experimental part: as §1, §2, §3, §4

The test system of a further assay is recombinant GlyRs. Also on record: method as in Maksay et al. (2001). The following applies: expressed in frog oocytes; ref Maksay et al. (2001); read-out: IC50 for inhibition of recombinant GlyRs; cited from earlier work.
Where [1] appears, read: read-out: Ipeak IC50 of IGly, inhibition of peak amplitude.
Where [2] appears, read: read-out: τdes IC50 of IGly, acceleration of desensitization (decrease in τdes).

T1 sequence (P62813 28-455): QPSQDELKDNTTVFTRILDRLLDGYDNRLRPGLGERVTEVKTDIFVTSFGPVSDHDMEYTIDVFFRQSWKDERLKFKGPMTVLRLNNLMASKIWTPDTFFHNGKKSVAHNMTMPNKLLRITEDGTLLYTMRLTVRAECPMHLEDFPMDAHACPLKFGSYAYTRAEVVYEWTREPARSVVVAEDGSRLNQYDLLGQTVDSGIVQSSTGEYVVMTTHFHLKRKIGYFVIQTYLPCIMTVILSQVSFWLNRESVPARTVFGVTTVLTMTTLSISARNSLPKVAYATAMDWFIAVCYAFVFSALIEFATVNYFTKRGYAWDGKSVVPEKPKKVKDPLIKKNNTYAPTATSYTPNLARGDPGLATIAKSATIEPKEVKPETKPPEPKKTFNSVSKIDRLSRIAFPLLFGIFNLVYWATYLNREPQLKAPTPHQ
T1 sequence (P63138 25-474 limits assumed): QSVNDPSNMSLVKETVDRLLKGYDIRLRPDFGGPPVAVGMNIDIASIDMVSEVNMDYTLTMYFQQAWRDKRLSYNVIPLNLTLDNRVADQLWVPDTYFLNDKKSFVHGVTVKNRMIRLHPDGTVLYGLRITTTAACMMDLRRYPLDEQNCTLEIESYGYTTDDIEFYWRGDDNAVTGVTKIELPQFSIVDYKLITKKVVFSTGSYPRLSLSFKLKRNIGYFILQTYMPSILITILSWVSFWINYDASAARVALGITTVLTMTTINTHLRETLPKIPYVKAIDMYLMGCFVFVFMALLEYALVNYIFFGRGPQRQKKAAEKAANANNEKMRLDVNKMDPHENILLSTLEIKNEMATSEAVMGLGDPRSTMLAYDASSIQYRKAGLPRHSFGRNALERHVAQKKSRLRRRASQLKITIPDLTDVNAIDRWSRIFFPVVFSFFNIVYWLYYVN
T1 sequence (P18508 39-466): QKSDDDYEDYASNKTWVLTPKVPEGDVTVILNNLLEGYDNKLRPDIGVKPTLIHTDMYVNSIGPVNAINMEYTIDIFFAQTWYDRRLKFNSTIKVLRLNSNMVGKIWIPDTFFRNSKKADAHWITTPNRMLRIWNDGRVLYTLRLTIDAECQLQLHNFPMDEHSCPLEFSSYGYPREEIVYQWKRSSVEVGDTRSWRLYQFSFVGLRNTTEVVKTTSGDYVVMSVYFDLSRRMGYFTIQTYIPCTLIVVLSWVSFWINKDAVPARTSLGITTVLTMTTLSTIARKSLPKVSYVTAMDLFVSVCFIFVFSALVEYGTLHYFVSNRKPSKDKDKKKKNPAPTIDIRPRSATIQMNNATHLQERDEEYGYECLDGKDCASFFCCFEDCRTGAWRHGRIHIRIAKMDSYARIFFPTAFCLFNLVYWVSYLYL

On to `CC(=O)[C@H]1CC[C@H]2[C@@H]3CC[C@H]4C[C@H](O)CC[C@]4(C)[C@H]3CC[C@]12C` [3α-hydroxy-5α-pregnane-20-one], for which the “Efficacy of potentiation of IGABA” value in the assay on GABAAR is 1373%.

As to `CC(O)C1CCC2C3CCC4CC(O)CCC4(C)C3CCC12C` (stereo not drawn) [20α-hydroxy analog], in the assay on GABAAR, the “Efficacy of potentiation of IGABA” value is listed as 166%.

As for `C[C@]12CC[C@H](O)CC1=CC[C@@H]1[C@@H]2CC[C@]2(C)C(=O)CC[C@@H]12` [Compound 8, 3β-Hydroxy-androst-5-en-17-one], in the assay with glycine receptor (GlyR), the “τdes/τdes control of IGly” value came out at 0.67 ± 0.05, the “τdes IGly (effect on time constant of desensitization)” value is given as −79%, the “Ipeak/Ipeak control of IGly” value is 0.70 ± 0.01 and the “Ipeak max (maximum inhibition attainable) of IGly” value came out at 0.73 ± 0.08. In addition, in the assay with glycine receptor (GlyR), the “τdes max (maximum inhibition attainable) of IGly” value is 0.88 ± 0.09, the “Ipeak Hill coefficient of IGly” value is 0.92 ± 0.14 and the “τdes Hill coefficient of IGly” value was determined as 0.57 ± 0.14. Besides, the IC50 in the assay with glycine receptor (GlyR) (setting [1]) is 21.3 ± 2.2 µM. Also, the IC50 in the assay with glycine receptor (GlyR) (setting [2]) stood at 0.24 ± 0.09 µM. Also, at GABAA receptors (10 μM compound, 5 μM GABA), the “τdes IGABA (effect on time constant of desensitization)” value was −12%. Besides, the “τdes/τdes control of IGABA” value at GABAA receptors (10 μM of steroid, 5 μM GABA) is 0.88 ± 0.05. Moreover, at GABAA receptors (50 μM compound, 5 μM GABA), the “Acceleration of decay (desensitization) of IGABA” value is reported as 23–45% and the “Decrease in the peak amplitude of IGABA” value is given as 14–25%. In addition, at GABAA receptors (50 μM of steroid, 5 μM GABA), the “Ipeak/Ipeak control of IGABA” value came to 0.75 ± 0.04.

As to `C[C@]12CCC(=O)C[C@H]1CC[C@@H]1[C@@H]2CC[C@]2(C)C(=O)CC[C@@H]12` [Compound 9, 5β-Androstane-3,17-dione], in the assay on glycine receptor (GlyR), the “τdes/τdes control of IGly” value stood at 0.72 ± 0.07, the “τdes IGly (effect on time constant of desensitization)” value is recorded as −68%, the “Ipeak/Ipeak control of IGly” value came to 0.77 ± 0.03 and the “Ipeak max (maximum inhibition attainable) of IGly” value is 0.68 ± 0.09. In the assay with glycine receptor (GlyR), the “τdes max (maximum inhibition attainable) of IGly” value was determined as 0.79 ± 0.11, the “Ipeak Hill coefficient of IGly” value was found to be 1.0 ± 0.19 and the “τdes Hill coefficient of IGly” value came out at 0.56 ± 0.14. Also, the concentration for half-maximal inhibition (IC50) with glycine receptor (GlyR) (setting [1]) was determined as 22 ± 2.8 µM. Also, the IC50 in the assay on glycine receptor (GlyR) (setting [2]) was found to be 0.4 ± 0.12 µM. At GABAA receptors, the “Ipeak/Ipeak control of IGABA” value was 0.99 ± 0.01, the “Modulation of IGABA (peak amplitude or rate of decay/desensitization)” value is “did not modulate; also recorded: remained inactive; also recorded: did not change”, the “τdes IGABA (effect in words)” value is “^cNo effect” and the “τdes/τdes control of IGABA” value is listed as 0.97 ± 0.03.

For `C[C@]12CC[C@H](OS(=O)(=O)O)CC1=CCC1C2CC[C@]2(C)C(=O)CCC12` (stereo partly drawn) [DHEA sulfate], the IC50 in the assay on recombinant GlyRs is 2.5 to 6.3 µM.

A word on the IC50: it is the concentration needed to halve the response being measured.
